We go through 6 compounds from the supplement of paper PMC11061612.

In test [1] the test system is KY821 (Acute Myeloid Leukemia). The experiment in a line: Bliss excess, mean over the matrix (fraction); higher = more synergy. The gist of the method:
(§1)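 Bliss excess equals the observed combination effect minus the expected value EA + EB − EA·EB, where EA and EB are the effects of each agent alone. Combination Emax is the second-highest inhibition within the matrix. Inhibition was scaled from CellTiter-Glo 2.0 luminescence, with 0 set by vehicle wells and 1 by blank wells, after 72 hours of two-drug dosing of cells plated in 1536-well plates.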

Test [2] relates to CHSA8926 (Chondrosarcoma). Described as above. The gist of the method:
as §1

The subject of test [3] is PC-3 (Prostate Carcinoma). The test is described as above. The gist of the method:
as §1

The subject of test [4] is NCCIT (Other Solid Carcinomas). Described as above. An outline of the steps: as §1
For test [5], the system named is HCC1187 (Breast Carcinoma). The test is described as above. An outline of the steps:
as §1

Test [6] relates to SUP-B15 (B-Lymphoblastic Leukemia). The description is as above. An outline of the steps: as §1
For test [7], the system named is KYSE-270 (Esophageal Squamous Cell Carcinoma). The test is described as above. The gist of the method:
as §1

The test system of test [8] is NCI-H929 (Plasma Cell Myeloma). The test is described as above. The gist of the method:
as §1

Test [9] concerns KP-3 (Pancreatic Carcinoma). The description is as above. An outline of the steps:
as §1

A further test has as its system M059J (Glioblastoma). Described as above. The gist of the method: as §1
Test [10] deals with IM-95 (Gastric Carcinoma). Described as above. The gist of the method: as §1
Test [11] concerns NCI-H526 (Small Cell Lung Carcinoma). The test is described as above. An outline of the steps:
as §1

The subject of another test is G-361 (Melanoma). The description is as above. An outline of the steps:
as §1

The next test concerns SJSA-1 (Osteosarcoma). Described as above. The gist of the method:
as §1

For test [12], the system named is MOLM-13 (Acute Myeloid Leukemia). Described as above. An outline of the steps:
as §1

The subject of test [13] is DAN-G (Pancreatic Carcinoma). Described as above. The gist of the method: as §1
Test [14] concerns MN-60 (B-Lymphoblastic Leukemia). Described as above. The gist of the method: as §1
The subject of test [15] is MOG-G-CCM (Low Grade Glioma). The description is as above. An outline of the steps:
as §1

In test [16] the test system is JHH-4 (Hepatocellular Carcinoma). The test is described as above. An outline of the steps:
as §1

For test [17], the system named is KU812 (Chronic Myelogenous Leukemia). The test can be described thus: combination Emax (second highest fraction inhibited in the dose matrix, 72 h); higher = more inhibition; extreme values may be limits of the assay. The gist of the method: as §1

On to `C[C@@H](c1ccc2nccn2c1)n1nnc2ncc(-c3cnn(C)c3)nc21` [Savolitinib] + Cc1c2c(nn1C)CSCc1cc(n(C)n1)CSc1cc(c3ccccc3c1)OCCCc1c(C(=O)O)n(C)c3c-2c(Cl)ccc13 [AZD5991] (first compound max 1 µM, 7x7, partner max 1 µM), for which the Bliss excess in test [1] was -0.0415; in [2], 0.0233; in test [3], -0.0402; in [4], -0.0528; in [5], -0.0038; in test [6] it was -0.0555. In addition, the Bliss excess in [7] was 0.0527; in [8], 0.0063; in test [9], -0.0785; in the test with M059J (Glioblastoma), -0.0289; in [10], -0.0166; in [11], -0.025. Besides, the Bliss excess with G-361 (Melanoma) is -0.0044; in the test with SJSA-1 (Osteosarcoma) it was -0.0714; in test [12], -0.0112; in test [13] it was -0.0434; in [14], -0.0334; in [15], -0.0683. In addition, in test [16], the Bliss excess is -0.0082. Also, the “combination Emax” value in test [17] came out at 0.708.
As to `COc1cccc2c1C(=O)c1c(O)c3c(c(O)c1C2=O)C[C@@](O)(C(=O)CO)C[C@@H]3O[C@H]1C[C@H](N)[C@H](O)[C@H](C)O1` [Doxorubicin] + Cc1cc2ncnn2cc1Nc1ncc2c(n1)n(C1CCOCC1)c(=O)n2C [AZD7648] (first compound max 1 µM, 7x7, partner max 10 µM), the Bliss excess was 0.0822 in test [1]; -0.0053 in test [2]; 0.0175 in test [3]; -0.0142 in test [4]; 0.114 in [5]; 0.153 in test [6]. The Bliss excess is 0.0494 in [7]; 0.126 in [8]; -0.0405 in test [9]; -0.0255 in the test on M059J (Glioblastoma); 0.016 in test [10]; 0.0586 in [11]. The Bliss excess with G-361 (Melanoma) was 0.0791; in the test with SJSA-1 (Osteosarcoma), 0.0555; in test [12] it was 0.0551; in [13] it was 0.0173; in test [14] it was 0.0759; in test [15] it was 0.0213. The Bliss excess in [16] turned out to be 0.0376. In test [17], the “combination Emax” value stood at 0.822.
For the compound `CN(C)CCCOc1ccc(-c2ccc3ncc4c(c3c2)n(C2CCOCC2)c(=O)n4C)cn1` [AZD0156] + CCN(CCO)CCCOc1ccc2c(Nc3cc(CC(=O)Nc4cccc(F)c4)[nH]n3)ncnc2c1 [AZD2811] (first compound max 1 µM, 7x7, partner max 1 µM), the Bliss excess in [1] was 0.147; in [2] it was -0.0389; in test [3], -0.0243; in [4], -0.0059; in test [5], -0.0596; in [6] it was -0.0595. Moreover, the Bliss excess in test [7] was -0.0307; in [8], 0.0125; in [9], -0.0417; with M059J (Glioblastoma), -0.0165; in test [10], 0.0925; in test [11] it was 0.0113. Further, the Bliss excess in the test on G-361 (Melanoma) is -0.0148; in the test on SJSA-1 (Osteosarcoma), -0.0348; in test [12], -0.0617; in test [13], 0.0128; in test [14] it was -0.016; in test [15], -0.0228. In addition, the Bliss excess in test [16] is -0.0297. Further, the “combination Emax” value in test [17] amounted to 0.584.
For the compound `COc1cccc(OCCCN)c1-c1cc(Nc2cnc(C#N)cn2)n[nH]1` [Prexasertib] + CN(C)CCCOc1ccc(-c2ccc3ncc4c(c3c2)n(C2CCOCC2)c(=O)n4C)cn1 [AZD0156] (first compound max 1 µM, 7x7, partner max 1 µM), the Bliss excess in test [1] was -0.0228; in [2], -0.039; in [3] it was -0.0352; in [4], 0.0017; in [5], -0.0016; in [6], -0.0513. The Bliss excess is -0.0024 in test [7]; -0.0523 in test [8]; 0.0021 in test [9]; -0.0826 in the test on M059J (Glioblastoma); 0.0384 in test [10]; -0.0158 in test [11]. In addition, the Bliss excess is 0.061 in the test on G-361 (Melanoma); -0.0246 in the test with SJSA-1 (Osteosarcoma); -0.0248 in test [12]; -0.0132 in test [13]; -0.0077 in test [14]; -0.0184 in [15]. Besides, in test [16], the Bliss excess was -0.0346. In addition, the “combination Emax” value in test [17] stood at 0.782.
As for `Cc1c2c(nn1C)CSCc1cc(n(C)n1)CSc1cc(c3ccccc3c1)OCCCc1c(C(=O)O)n(C)c3c-2c(Cl)ccc13` [AZD5991] + CCN(CCO)CCCOc1ccc2c(Nc3cc(CC(=O)Nc4cccc(F)c4)[nH]n3)ncnc2c1 [AZD2811] (first compound max 1 µM, 7x7, partner max 1 µM), the Bliss excess in test [1] is 0.0053; in test [2], 0.0305; in test [3], -0.0328; in test [4] it was -0.0049; in [5] it was -0.0292; in test [6], 0.0125. Besides, the Bliss excess in test [7] was 0.0998; in [8], 0.0409; in test [9], -0.0026; in the test on M059J (Glioblastoma), -0.0074; in [10], 0.0605; in [11], 0.123. Besides, the Bliss excess in the test with G-361 (Melanoma) was 0.0481; in the test with SJSA-1 (Osteosarcoma), 0.0839; in test [12] it was 0.024; in [13] it was 0.0055; in test [14], 0.0086; in test [15], 0.0013. Besides, the Bliss excess in [16] worked out at 0.0134. Further, the “combination Emax” value in [17] is 0.851.
In the case of `COc1nnc2ccc(N3CCC(c4ccc(OCCN5CCN(C)C(=O)[C@H]5C)cc4)CC3)nn12` [AZD5153] + Cn1cnc2c(F)c(Nc3ccc(Br)cc3Cl)c(C(=O)NOCCO)cc21 [Selumetinib] (first compound max 1 µM, 7x7, partner max 10 µM), the Bliss excess in [1] is 0.0027; in test [2], -0.0599; in test [3], -0.0598; in [4] it was -0.0845; in test [5], -0.0067; in test [6], 0.101. The Bliss excess in test [7] was 0.0576; in [8] it was -0.0068; in [9], -0.0122; with M059J (Glioblastoma), -0.0635; in test [10], 0.0649; in test [11], -0.0183. In addition, the Bliss excess in the test on G-361 (Melanoma) is -0.107; in the test on SJSA-1 (Osteosarcoma), -0.0377; in [12], 0.0238; in test [13] it was -0.0368; in test [14], -0.0593; in [15], -0.0198. The Bliss excess in test [16] was 0.0336. In test [17], the “combination Emax” value came to 0.994.
